These are literature values, as cited in publication PMC13062086, “A sstR2-targeted radiohybrid theranostic agent for PET imaging and β^- therapy with excellent preclinical performance” (npj Imaging, 2026).

The series concerns the target T1, human serum albumin (HSA) (Homo sapiens, UniProt P02768).
T1 construct: purchased Daicel, Tokyo, Japan Chiralpak HSA column (50 × 3 mm, 5 μm, H13 h-2433)
Further details: method as in earlier work. The conditions noted are these: literature-known values for calibration curve ref 2-3 (SI; main text 45, 46).

T1 sequence (P02768 25-609): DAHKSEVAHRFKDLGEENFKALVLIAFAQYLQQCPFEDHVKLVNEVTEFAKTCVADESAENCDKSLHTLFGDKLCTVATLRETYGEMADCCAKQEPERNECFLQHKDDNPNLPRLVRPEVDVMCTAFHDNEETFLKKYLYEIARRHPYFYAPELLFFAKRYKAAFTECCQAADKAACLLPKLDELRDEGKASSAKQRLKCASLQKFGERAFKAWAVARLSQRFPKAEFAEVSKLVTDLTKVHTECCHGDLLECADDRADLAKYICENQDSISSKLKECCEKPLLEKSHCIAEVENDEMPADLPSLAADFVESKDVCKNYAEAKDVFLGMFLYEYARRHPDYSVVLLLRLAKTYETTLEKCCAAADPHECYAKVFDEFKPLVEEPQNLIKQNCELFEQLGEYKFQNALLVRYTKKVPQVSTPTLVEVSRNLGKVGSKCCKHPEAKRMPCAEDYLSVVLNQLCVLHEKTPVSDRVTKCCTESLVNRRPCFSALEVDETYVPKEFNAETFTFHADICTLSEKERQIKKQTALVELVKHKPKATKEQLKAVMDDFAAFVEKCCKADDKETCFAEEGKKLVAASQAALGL

Take `COc1ccc(Cl)cc1C(=O)NCCc1ccc(S(=O)(=O)NC(=O)NC2CCCCC2)cc1` [Glibenclamide]: the HSA-binding was 99.00%.
As to `O=C(O)c1ccccc1` [Benzoic acid], the HSA-binding is 34.27%.
As for `Nc1ccccc1` [Aniline], the HSA-binding is reported as 14.06%.
`Oc1ccccc1` [Phenol]: the HSA-binding is on record as 20.69%.
Turning to `OCc1ccccc1` [Benzyl alcohol], the HSA-binding is 13.15%.
In the case of `CCCN(CCC)S(=O)(=O)c1ccc(C(=O)O)cc1` [Probenecid], the HSA-binding is reported as 95.00%.
